Test results published in patent publication US7427416B2, “Methods of treating conditions using metal-containing materials” (Nucryst Pharmaceuticals Corp., priority 2000, dated 2008).
“And” between values parts separate entries of the source, which are not always exact repeats. Identical values can stand only once.

Experiments:
[1] = system: Pseudomonas infected lungs; experiment: rat lung infection, gross lung score; format: in vivo; conditions: individual animals, absent=0, mild=1, moderate=2, severe=3
Method: A solution form nanocrystalline silver coated dressings (AgHDPE) from Example 1 was prepared by sparging CO2 through 1000 ml of reverse osmosis water using commercial CO2 Soda Syphon Charger. […] At this point, approximately 333 ml of the carbonated water was decanted into a plastic bottle and 333 square inches of nanocrystalline silver-coated net was added to the water. The nanocrystalline silver-coated net and water were placed in 37° C. shaker incubator and shaken at 180 RPM for 30 minutes to elevate the pH to approximately 5.8. The solution was then transferred to a beaker and stirred vigorously for 2 minutes to raise the pH to approximately at 7.3. The dissolution solution was transferred to a commercial nebulizer which was connected to a medical air cylinder with a flow rate of approx. 20 L/min. The outflow of the nebulizer was connected to a animal chamber housing the rats to be dosed. Only the “test” rats (12 randomly assigned animals) received the dosing. The rats received two —½ hour aerosol administrations of the test solution on the day of infection. […]
On each day, six rats of each group of animals were sacrificed. […] Lungs were grossly scored (absent=0, mild=1, moderate=2, and severe=3) based on the degree and involvement of consolidation, hemorrhage, edema and necrosis based upon gross observation.

[2] = system: Pseudomonas infected lungs; experiment: rat lung infection, histopathology of lung samples; format: in vivo; conditions: for Consol Score / Inflam Score: 0=normal to 4 very severe
Method: A solution form nanocrystalline silver coated dressings (AgHDPE) from Example 1 was prepared by sparging CO2 through 1000 ml of reverse osmosis water using commercial CO2 Soda Syphon Charger. […] At this point, approximately 333 ml of the carbonated water was decanted into a plastic bottle and 333 square inches of nanocrystalline silver-coated net was added to the water. The nanocrystalline silver-coated net and water were placed in 37° C. shaker incubator and shaken at 180 RPM for 30 minutes to elevate the pH to approximately 5.8. The solution was then transferred to a beaker and stirred vigorously for 2 minutes to raise the pH to approximately at 7.3. The dissolution solution was transferred to a commercial nebulizer which was connected to a medical air cylinder with a flow rate of approx. 20 L/min. The outflow of the nebulizer was connected to a animal chamber housing the rats to be dosed. Only the “test” rats (12 randomly assigned animals) received the dosing. The rats received two —½ hour aerosol administrations of the test solution on the day of infection. Thereafter, the test rats were dosed 3 times per day for an additional one and a half days.
The bacteria used for infection of these animals were Pseudomonas aeruginosa strain 5588. The dose was previously titrated to ascertain that a dose of up to 10^9 CFU was not lethal for the animals. The bacteria were grown overnight in Tryptic soy broth, washed once in sterile PBS and resuspend in sterile PBS. The final concentration of the inoculum was 4×10^9 CFU/ml.
The rats were anesthetized by inhalation of 2% halothane. A 400 microliter volume of bacterial suspension was intratracheally administered in the bronchi of each rat. This was performed non-surgically on intubated animals.
Histopathology was scored (0-4) based upon the degree of consolidation and inflammation (neutrophil infiltration). The entire right middle lobes of all rats were collected for histopathology. As whole lobes were selected there was no bias toward any sample. All samples were fixed in neutral buffered formalin at the time the lung was removed from the thorax. It was fixed overnight, dehydrated and embedded in was. Sections were obtained which were hydrated and stained with haematoxylin and eosin.
All sections were examined by a veterinary pathologist who was blinded to the treatment groups, until after the samples were scored and comments were provided. (0=normal, 1=slight, 2 moderate, 3 severe, 4 very severe).

[3] = system: Pseudomonas aeruginosa strain 5588 infected lungs; experiment: nebulized forms of silver in rats, gross lung score; format: in vivo, rat; conditions: after 24 h, nebulized solutions (400 ppm; colloidal silver 20 ppm)
Method: A solution was prepared by sparging CO2 through 1000 ml of reverse osmosis water using commercial CO2 Soda Syphon Charger. This process results in the pH of the water dropping to about 4. At this point, approximately 333 ml of the carbonated water was decanted into a plastic bottle and 333 square inches of nanocrystalline silver-coated net was added to the water. The nanocrystalline silver-coated net and water were placed in 37° C. shaker incubator and shaken at 180 RPM for 30 minutes to elevate the pH to approximately 5.8. The solution was then transferred to a beaker and stirred vigorously for 2 minutes to raise the pH to approximately at 7.3.
A colloidal silver solution (20 ppm) in was obtained from a commercial source.
The dissolution solutions were transferred to commercial nebulizers which were connected to a Medical air cylinder with a flow rate of approx. 20 L/min. The outflows of the nebulizers were connected to an animal chamber housing the rats to be dosed. All rats (40 randomly assigned animals) received the dosing. The rats received two —½ hour aerosol administrations of the test solutions on the day of infection. […]
All rats of each group of animals were sacrificed after 24 h. […] Lungs were grossly scored (absent=0, mild=1, moderate=2, and severe=3) based on the degree of involvement of consolidation, hemorrhage, edema and necrosis based upon gross observation.

Staphylococcus aureus = experiment: aerosol of silver solutions on streaked agar plates; format: cell-based; parameters: key to Growth at 16 h (0−++++) / Growth at 48 h (0−++++): (0−++++); (0−++++); (0−++++); (0−++++); conditions: for Growth at 16 h (0−++++) / Growth at 48 h (0−++++): aerosol 53 minutes
Method: (§1) The solutions were in turn placed in an ultrasonic nebulizer that created small droplets containing dissolved and suspended parts of the silver solution. The output from the nebulizer was directed into a chamber made from a stainless steel frame and base. Petri dishes containing Mueller Hinton agar streaked with 4 h old cultures of Pseudomonas aeruginosa and Staphylococcus aureus, were exposed to the silver solution aerosols and the silver nitrate aerosols.
(§2) The method used for the current tests was the mechanical method in the form of an ultrasonic nebulizer. For convenience an ultrasonic humidifier was used. The liquid containing the dissolved and suspended silver from the dressing of Example 1 was placed in the water reservoir of the humidifier. When power was applied to the humidifier aerosol droplets of dissolved and suspended silver were generated and flowed from the output nozzle.
(§3) A test chamber was constructed using a stainless steel frame with a transparent plastic covering. The frame was placed on a stainless steel base plate. The output nozzle from the humidifier was modified so that the aerosol could be directed into the chamber at a height of approximately 30 cm from the base. The plates and other test samples were placed on the stainless steel plate and exposed to the aerosol for a prescribed length of time.
(§4) Petri dishes, containing Mueller Hinton agar, were streaked with 4 h old cultures of Pseudomonas aeruginosa or Staphylococcus aureus. The plates were then weighed and their exposed outer surfaces were coated with Parafilm to prevent condensation from occurring on these surfaces. These plates were placed in the aerosol chamber uncovered. The ultrasonic nebulizer was then started and run for 53 minutes. The plates were then removed from the chamber, the plastic was removed and the dishes re-weighed so that the amount of moisture loss/gain could be determined.
(§5) The plates were then placed in a 35° C. incubator for 16 h. After incubation the pattern and amount of growth was assessed on the plates for both organisms.
(§6) Three of the six plates made for each organism were tested to determine if the antimicrobial effect was cidal or static in nature. This was accomplished by rinsing or placing a piece of the clear section of agar in the Petri dish plates into Tryptic soy broth in a test tube and incubating for 4 h or 16 h. If the medium turned turbid in 4 h it would indicate that the antimicrobial affect was bacteriostatic in nature. If the organisms took more than 16 h to grow, as indicated by turbidity, it was considered an indication that both static and cidal effects occurred. If no growth occurred the effect was bactericidal.
as §1, with “the solution of nanocrystalline noble metal-containing material.” for “the silver solution.”, “Pseudomonas aerugiona” for “Pseudomonas aeruginosa”, “Staphylococcus aureus” for “Staphylococcus aureus,”, “to nanocrystalline noble metal” for “to the silver solution”
(§7) The method used to create an aerosol for these tests was the mechanical method in the form of an ultrasonic nebulizer. For convenience, an ultrasonic humidifier was used. The liquid containing the dissolved and suspended antimicrobial metal-containing material with atomic disorder was placed in the water reservoir of the humidifier. When power was applied to the humidifier, aerosol droplets of dissolved and suspended antimicrobial metal-containing material with atomic disorder were generated and flowed from the output nozzle.
(§8) A test chamber was constructed using a stainless steel frame with a transparent plastic covering. The frame was placed on a stainless steel plate.

Pseudomonas aeruginosa = experiment: as above; format: cell-based; parameters: key to Growth at 16 h (0−++++) / Growth at 48 h (0−++++): (0−++++); (0−++++); (0−++++); (0−++++); conditions: for Growth at 16 h (0−++++) / Growth at 48 h (0−++++): aerosol 53 minutes; for Viable 4 h / Viable 16 h: regrowth in Tryptic soy broth
Method: as §1, §2, §3, §4, §5, §6
as §1, with “the solution of nanocrystalline noble metal-containing material.” for “the silver solution.”, “Pseudomonas aerugiona” for “Pseudomonas aeruginosa”, “Staphylococcus aureus” for “Staphylococcus aureus,”, “to nanocrystalline noble metal” for “to the silver solution”
as §7, §8

[4] = Solutions 1 and 3: Ag 85 (dressing) / 99 (AgNO3) μg/ml
[5] = Solutions 1 and 3: Ag 85 / 99 μg/ml
[6] = Solutions 1 and 3: Ag 85 / 99 μg/ml, regrowth in Tryptic soy broth
[7] = Solutions 2 and 4: Ag 370 (dressing) / 300 (AgNO3) μg/ml
[8] = Solutions 2 and 4: Ag 370 / 300 μg/ml

Compound: NC[C@H]1O[C@H](O[C@H]2[C@H](O)[C@@H](O[C@H]3O[C@H](CO)[C@@H](O)[C@H](N)[C@H]3O)[C@H](N)C[C@@H]2N)[C@H](N)C[C@@H]1O [Tobramycin]
- gross lung score ([1]; 24 h): 2 (3×) and 3 (2×) and 1
- gross lung score ([1]; 48 h): 1 (4×) and 2 and Dead
- Comments (histopathology) ([2]; Time 24): Severe infiltration of PMNs into interstitial spaces.
- Consol Score ([2]; Time 24): 3
- Inflam Score ([2]; Time 24): 3
- Comments (histopathology) ([2]; Time 48): Severe infiltration of PMNs into interstitial spaces.
- Involvement of sample ([2]; Time 48): in affected areas. Involvement of 70% of sample.
- Consol Score ([2]; Time 48): 3
- Inflam Score ([2]; Time 48): 3

Compound: O=[N+]([O-])[O-].[Ag+] [AgNO3, silver nitrate]
- gross score of lungs [3]: moderately to severely inflamed
- Growth at 16 h (0−++++) (Staphylococcus aureus; [4]): 0
- Growth at 16 h (0−++++) (Staphylococcus aureus; Solutions 1 and 3: Ag 85 (dressing) / 99 (AgNO3) μg/ml, listed as AgNo3): ++++
- Growth at 48 h (0−++++) (Staphylococcus aureus; [5]): ++++
- Viable 4 h (Staphylococcus aureus; [6]): No
- Viable 16 h (Staphylococcus aureus; [6]): Yes
- Viable 4 h (Staphylococcus aureus; Solutions 1 and 3: Ag 85 / 99 μg/ml, regrowth in Tryptic soy broth, listed as AgNo3): Yes
- Growth at 16 h (0−++++) (Staphylococcus aureus; [7]): 0
- Growth at 48 h (0−++++) (Staphylococcus aureus; [8]): +++
- Viable 4 h (Staphylococcus aureus; Solutions 2 and 4: Ag 370 / 300 μg/ml, regrowth in Tryptic soy broth): No
- Growth at 16 h (0−++++) (Pseudomonas aeruginosa; [4]): 0
- Growth at 48 h (0−++++) (Pseudomonas aeruginosa; [5]): 0
- Viable 4 h (Pseudomonas aeruginosa; [5]): No
- Viable 16 h (Pseudomonas aeruginosa; [5]): No
- Viable 16 h (Pseudomonas aeruginosa; Solutions 1 and 3: Ag 85 / 99 μg/ml, listed as AgNo3): Yes
- Growth at 16 h (0−++++) (Pseudomonas aeruginosa; [7]): 0
- Growth at 48 h (0−++++) (Pseudomonas aeruginosa; [8]): 0
- Viable 4 h (Pseudomonas aeruginosa; [8]): No
- Viable 16 h (Pseudomonas aeruginosa; [8]): No
